Results from patent US11059824B2, “Substituted purines as TLR7 agonists” (Primmune Therapeutics, Inc., priority 2018, dated 2021).
“And” between values parts separate entries of the source, which are not always exact repeats. Equal entries are not always repeated. Marks after values point to notes of the source that are not given here.

What was measured:
human TLR7 = human TLR7 (Homo sapiens (Human), UniProt Q9NYK1); assay: TLR7 reporter assay (HEK293-TLR-NF-κB inducible SEAP reporter); assay type: cell-based; settings: HEK293 cells stably expressing human TLR7 with NF-κB-driven SEAP reporter; 15-24 hours
Description: (§1) The engagement of TLRs by cognate ligands triggers downstream signaling cascades, leading to the activation of NF-κB and other transcription factors which initiate various immunomodulatory effects. The human embryonic kidney cell line, HEK293, is essentially non-responsive to TLR agonists, but ectopic expression of TLRs in these cells allows cognate agonists to activate endogenous NF-κB. Accordingly, the HEK293-TLR-NF-κB inducible reporter system is used to assay TLR agonists. HEK293 cell lines stably expressing human TLR7 or TLR8 together with an NF-κB-driven-secreted alkaline phosphatase (SEAP) reporter were invented at InvivoGen (San Diego, Calif., USA) and used to assess compounds of the present invention for TLR7 and TLR8 agonist activities. Cells were seeded at 2-5×10^4 cells/well in 96 well plates ([…]) and treated with various concentrations of compound (10 μl) for 15-24 hours. SEAP activity was determined by measuring OD at 650 nm; the media used to culture the cell lines contains the reagents required for SEAP detection. The EC50 values in Table 2 are calculated from fitting the dose response of measured SEAP activity for each compound to the following equation: Y=ymax*c^nh/(EC50^nh+c^nh)+blank where Y is the experimentally measured OD650 at concentration c of test article, blank is the observed OD650 in the absence of TLR7 agonist, ymax is the difference between the measured OD650 in the presence of either 28.5 μM resiquimod or 1.675 μM CL307 and the blank and values of EC50 and nh are determined by nonlinear least squares analysis.

[1] = Oral bioavailability in cynomolgus monkeys; assay type: in vivo; settings: vs loxoribine administered orally as itself or as prodrugs
Description: From two to four male or female cynomolgus monkeys were used for animal testing studies. The study compounds were formulated in a vehicle (e.g. 50 mM Phosphate Buffered Saline, pH 7.4) appropriate for animal oral or intravenous administration. Parent compounds 1, 5, 26 and 27 were administered at 1 mg/kg by IV administration whereas prodrugs of the corresponding compounds were administered at 2 mg/kg. After dosing, 0.5 mL blood samples were collected typically at 0.083, 0.33, 1, 2, 4, 6, 8, 12 and 24 hours post-dosing (iv administration) or 0.25, 0.5, 1, 2, 4, 6, 8, 12 and 24 hours post-dosing (oral administration). Plasma was separated from blood and analyzed for the active agonists by well-known LC-MS techniques. […] Percent bioavailability (F %) of compounds when administered orally as prodrug was calculated from the ratio of dose-normalized AUC of parent from oral prodrug administration to that of dose-normalized parent AUC from IV parent administration and reported in Table 4.

[2] = test system: interferon-α production in hPBMCs; assay: Induction of interferon-α production in hPBMCs; assay type: cell-based, human; settings: interferon-α production from hPBMCs; for Weighted MEC: geometric mean of all individual MECs across all donors, 24 hours; for individual MEC values: per donor
Description: Treatment of hPBMCs with a TLR7 agonist typically induces substantial production of interferon-α as well as lesser amounts of a variety of other cytokines and chemokines. A typical experiment uses hPBMCs isolated from a healthy donor and placed in replicate cell culture wells; typically 1.0-7.5×10^6 cells are placed in each well. Test compound is added and the cells cultured for 24 hours at 37° C. in a humidified atmosphere containing 5% CO2 post-addition; untreated controls are included. Secreted interferon-α production is measured using an a multisubtype interferon-α ELISA kit like those from PBL Assay Sciences or specifically as IFNα2a as part of a panel of cytokines and chemokines using luminex methodologies. The minimal effective concentration (MEC) is the minimum concentration in a dose response curve where a significant increase in interferon-α production (generally at least 20 pg/ml) is observed above baseline. MEC values for each compound are determined for at least three donors. The weighted MEC for each compound is the geometric mean of all individual MECs across all donors. Concentrations tested typically consist of a two-fold dilution series starting at 100 μM. In the calculation of weighted MEC, any value >100 μM is arbitrarily set to 200 μM unless all MECs for a compound exceed 100 μM

human TLR8 = human TLR8 (Homo sapiens (Human), UniProt Q9NR97); assay: TLR8 reporter cell assay (HEK293-TLR-NF-κB inducible SEAP reporter); assay type: cell-based; settings: incubation with resiquimod
Description: as §1, with “The EC50 values in Table 2 are calculated from fitting the dose response of measured SEAP activity for each compound to the following equation: Y=ymax*c^nh/(EC50^nh+c^nh)+blank where Y is the experimentally measured OD650 at concentration c of test article, blank is the observed OD650 in the absence of TLR7 agonist, ymax is the difference between the measured OD650 in the presence of either 28.5 μM resiquimod or 1.675 μM CL307 and the blank and values of EC50 and nh are determined by nonlinear least squares analysis.” left out

[3] = cynomolgus monkeys, from Table 23 of U.S. Pat. No. 7,575,068 B2, cited from earlier work; for % F (percent bioavailability of loxoribine administered as prodrug): oral prodrug of loxoribine
[4] = test system: B16-F10 rodent melanoma tumor cells; assay: Antitumor activity in rodent model (B16-F10 syngenic); assay type: in vivo, mice; settings: IV by tail vein, 10 total doses, two weeks after randomization
Description: B16-F10 rodent melanoma tumor cells were injected into the flank of 32 mice in a syngenic model. […] Administration of the drugs was initiated on the following day. Tumor volumes were monitored for two weeks.

Chain of human TLR7 (Q9NYK1 27-1049): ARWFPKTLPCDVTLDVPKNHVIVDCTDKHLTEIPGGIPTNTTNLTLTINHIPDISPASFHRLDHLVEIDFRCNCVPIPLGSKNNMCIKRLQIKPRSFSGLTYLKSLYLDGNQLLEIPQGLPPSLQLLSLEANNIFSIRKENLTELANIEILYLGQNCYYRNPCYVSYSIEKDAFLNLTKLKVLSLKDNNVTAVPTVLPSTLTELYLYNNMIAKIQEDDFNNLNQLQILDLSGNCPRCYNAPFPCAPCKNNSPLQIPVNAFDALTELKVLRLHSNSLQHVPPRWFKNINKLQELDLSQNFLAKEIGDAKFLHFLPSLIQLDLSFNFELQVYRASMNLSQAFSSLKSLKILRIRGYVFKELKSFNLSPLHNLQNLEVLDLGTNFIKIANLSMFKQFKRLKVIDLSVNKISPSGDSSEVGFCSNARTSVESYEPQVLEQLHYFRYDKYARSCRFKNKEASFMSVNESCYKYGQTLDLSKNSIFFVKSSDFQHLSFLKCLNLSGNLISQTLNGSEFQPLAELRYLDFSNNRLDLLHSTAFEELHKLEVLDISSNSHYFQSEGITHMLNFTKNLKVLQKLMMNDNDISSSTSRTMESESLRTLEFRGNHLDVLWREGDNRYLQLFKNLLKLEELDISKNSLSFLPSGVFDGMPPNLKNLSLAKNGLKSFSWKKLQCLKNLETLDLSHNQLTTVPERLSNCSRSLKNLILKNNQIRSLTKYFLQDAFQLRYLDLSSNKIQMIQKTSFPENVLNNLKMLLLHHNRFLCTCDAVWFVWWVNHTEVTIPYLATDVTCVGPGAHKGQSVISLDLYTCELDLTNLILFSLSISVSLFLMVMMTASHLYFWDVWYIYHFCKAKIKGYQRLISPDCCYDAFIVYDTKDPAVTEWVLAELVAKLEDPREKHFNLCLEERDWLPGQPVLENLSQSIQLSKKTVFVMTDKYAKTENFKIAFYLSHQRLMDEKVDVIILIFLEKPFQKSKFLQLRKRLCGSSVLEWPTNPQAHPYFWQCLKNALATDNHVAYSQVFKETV
Chain of human TLR8 (Q9NR97 27-1041): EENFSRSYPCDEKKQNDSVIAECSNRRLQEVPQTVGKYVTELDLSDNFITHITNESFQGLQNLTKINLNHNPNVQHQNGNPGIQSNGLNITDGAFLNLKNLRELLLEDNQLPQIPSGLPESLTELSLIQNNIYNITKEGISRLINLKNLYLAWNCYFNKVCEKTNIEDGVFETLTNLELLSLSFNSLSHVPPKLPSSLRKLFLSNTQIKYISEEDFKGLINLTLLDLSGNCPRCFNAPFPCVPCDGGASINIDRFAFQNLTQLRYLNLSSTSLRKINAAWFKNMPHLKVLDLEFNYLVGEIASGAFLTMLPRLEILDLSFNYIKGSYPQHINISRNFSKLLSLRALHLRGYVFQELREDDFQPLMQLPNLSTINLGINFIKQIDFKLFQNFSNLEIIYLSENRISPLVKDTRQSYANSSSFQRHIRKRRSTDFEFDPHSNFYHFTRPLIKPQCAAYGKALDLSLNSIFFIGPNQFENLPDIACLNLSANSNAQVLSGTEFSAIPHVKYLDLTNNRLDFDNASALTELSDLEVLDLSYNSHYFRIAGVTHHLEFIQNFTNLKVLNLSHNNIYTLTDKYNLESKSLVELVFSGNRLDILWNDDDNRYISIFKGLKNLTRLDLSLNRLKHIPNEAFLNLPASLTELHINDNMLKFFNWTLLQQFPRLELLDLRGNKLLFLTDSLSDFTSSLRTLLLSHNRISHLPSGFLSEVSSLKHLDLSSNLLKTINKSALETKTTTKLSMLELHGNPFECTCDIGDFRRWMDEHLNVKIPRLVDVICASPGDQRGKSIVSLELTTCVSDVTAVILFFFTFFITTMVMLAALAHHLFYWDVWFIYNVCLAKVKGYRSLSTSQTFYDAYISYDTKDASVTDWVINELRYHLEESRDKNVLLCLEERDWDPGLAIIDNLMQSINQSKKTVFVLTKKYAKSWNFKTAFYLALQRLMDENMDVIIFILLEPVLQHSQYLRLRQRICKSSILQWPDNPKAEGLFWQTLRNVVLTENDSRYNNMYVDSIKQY

SMILES | EC50 (human TLR7) | Weighted MEC [2] | other results
C#CCn1c(=O)n([C@@H]2O[C@H](CO)[C@@H](F)[C@H]2O)c2nc(N)[nH]c(=O)c21 [Compound 27, 2-Amino-9-((2R,3S,4S,5R)-4-fluoro-3-hydroxy-5-(hydroxymethyl)tetrahydrofuran-2-yl)-7-(prop-2-yn-1-yl)-7,9-dihydro-1H-purine-6,8-dione] | 376 µM | less than or equal to 40 μM and 23 μM | Systemic delivery by prodrugs compared with loxoribine [1]: substantially greater than loxoribine; individual MEC values [2]: < 100 µM
Nc1nc2c(c(=O)[nH]1)n(CC1CC1)c(=O)n2[C@@H]1O[C@H](CO)[C@H](O)[C@H]1O [Compound 1, 2-Amino-7-(cyclopropylmethyl)-9-((2R,3R,4R,5R)-3,4-dihydroxy-5-(hydroxymethyl)tetrahydrofuran-2-yl)-7,9-dihydro-1H-purine-6,8-dione] | 188 µM | 66* μM | Systemic delivery by prodrugs compared with loxoribine [1]: substantially greater than loxoribine
CCOCc1nc2c(N)nc3ccccc3c2n1CC(C)(C)O [resiquimod] | – | – | induction of SEAP production in the TLR8 reporter cell assay (human TLR8): Substantial induction of SEAP production
C=CCn1c(=O)n([C@@H]2O[C@H](CO)[C@@H](O)[C@H]2O)c2nc(N)ncc21 [7-allyl-2-amino-9-β-D-ribofuranosyl-7,9-dihydropurin-8-one] | – | – | % F (percent bioavailability of loxoribine administered as prodrug) [3]: 13%
C=CCn1c(=O)n([C@@H]2O[C@H](CO)[C@@H](O)[C@H]2O)c2nc(N)nc(OCC)c21 [7-allyl-2-amino-6-ethoxy-9-β-D-ribofuranosyl-7,9-dihydropurin-8-one] | – | – | % F (percent bioavailability of loxoribine administered as prodrug) [3]: 9%
C#CCn1c(=O)n([C@@H]2O[C@H](CO)C[C@H]2O)c2nc(N)[nH]c(=O)c21 [Compound 26, 2-Amino-9-((2R,3R,5S)-3-hydroxy-5-(hydroxymethyl)tetrahydrofuran-2-yl)-7-(prop-2-yn-1-yl)-7,9-dihydro-1H-purine-6,8-dione] | 519 µM | less than or equal to 40 μM and 31 μM | Systemic delivery by prodrugs compared with loxoribine [1]: substantially greater than loxoribine; individual MEC values [2]: < 100 µM
CCn1c(=O)n([C@@H]2O[C@H](CO)[C@H](O)[C@H]2O)c2nc(N)[nH]c(=O)c21 [Compound 16, 2-Amino-9-((2R,3R,4R,5R)-3,4-dihydroxy-5-(hydroxymethyl)tetrahydrofuran-2-yl)-7-ethyl-7,9-dihydro-1H-purine-6,8-dione] | 534 µM | >100* μM | –
COC(=O)Cn1c(=O)n([C@@H]2O[C@H](CO)[C@H](O)[C@H]2O)c2nc(N)[nH]c(=O)c21 [Compound 12, Methyl 2-(2-amino-9-((2R,3R,4R,5R)-3,4-dihydroxy-5-(hydroxymethyl)tetrahydrofuran-2-yl)-6,8-dioxo-1,6,8,9-tetrahydro-7H-purin-7-yl)acetate] | 407 µM | >100* μM | –
Nc1nc2c(c(=O)[nH]1)n(CC(F)(F)F)c(=O)n2[C@@H]1O[C@H](CO)[C@H](O)[C@H]1O [Compound 13, 2-Amino-9-((2R,3R,4R,5R)-3,4-dihydroxy-5-(hydroxymethyl)tetrahydrofuran-2-yl)-7-(2,2,2-trifluoroethyl)-7,9-dihydro-1H-purine-6,8-dione] | 151 µM | 66* μM | –
C=CCn1c(=O)n([C@@H]2O[C@H](CO)[C@@H](O)[C@H]2O)c2nc(N)[nH]c(=O)c21 [loxoribine, reference compound] | 322 µM | 136* μM | % F (intrinsic bioavailability of loxoribine) ([3]; loxoribine administered orally as loxoribine itself): 2%^b
Nc1nc2c(c(=O)[nH]1)n(CC(F)F)c(=O)n2[C@@H]1O[C@H](CO)[C@H](O)[C@H]1O [Compound 14, 2-Amino-7-(2,2-difluoroethyl)-9-((2R,3R,4R,5R)-3,4-dihydroxy-5-(hydroxymethyl)tetrahydrofuran-2-yl)-7,9-dihydro-1H-purine-6,8-dione] | 180 µM | 100* μM | –
C#CCn1c(=O)n([C@@H]2O[C@H](CO)[C@H](O)[C@H]2O)c2nc(N)[nH]c(=O)c21 [Compound 5, 2-Amino-9-((2R,3R,4R,5R)-3,4-dihydroxy-5-(hydroxymethyl)tetrahydrofuran-2-yl)-7-(prop-2-yn-1-yl)-7,9-dihydro-1H-purine-6,8-dione] | 292 µM | less than or equal to 40 μM and 34 μM | Mean tumor growth inhibition (% TGI) versus the control group ([4]; group (ii): 40 mg/kg, BID for five consecutive days): 40%; Mean tumor growth inhibition (% TGI) versus the control group ([4]; group (iii): 40 mg/kg, BID every other day): 64%; individual MEC values [2]: < 100 µM
